Results from PubChem BioAssay (NCI).
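Cells were grown in 96-well plates and exposed to each compound for 48 hours at five concentrations; endpoints were interpolated linearly between bracketing concentrations, or set to the highest concentration if not reached. GI50 marks 50% less growth. TGI is the concentration that stops growth completely.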

What was measured:
Test in all cases: NCI tumour cell line growth inhibition, 48 h
HOP-62 NSCLC = test system: HOP-62 NSCLC
SF-268 CNS = test system: SF-268 CNS
HL-60(TB) leukemia = test system: HL-60(TB) leukemia
CAKI-1 renal = test system: CAKI-1 renal
SNB-75 CNS = test system: SNB-75 CNS
MCF7 breast = test system: MCF7 breast
TK-10 renal = test system: TK-10 renal
OVCAR-4 ovarian = test system: OVCAR-4 ovarian
T-47D breast = test system: T-47D breast
NCI-H460 lung = test system: NCI-H460 lung
SF-295 CNS = test system: SF-295 CNS
SK-MEL-5 melanoma = test system: SK-MEL-5 melanoma
ACHN renal = test system: ACHN renal
NCI-H522 lung = test system: NCI-H522 lung
MOLT-4 leukemia = test system: MOLT-4 leukemia
IGROV1 ovarian = test system: IGROV1 ovarian
SK-MEL-2 melanoma = test system: SK-MEL-2 melanoma
HCC-2998 colon = test system: HCC-2998 colon
SN12C renal = test system: SN12C renal
LOX IMVI melanoma = test system: LOX IMVI melanoma
HOP-92 NSCLC = test system: HOP-92 NSCLC
SW-620 colon = test system: SW-620 colon
DU-145 prostate = test system: DU-145 prostate
UACC-257 melanoma = test system: UACC-257 melanoma
M14 melanoma = test system: M14 melanoma
K-562 leukemia = test system: K-562 leukemia
SF-539 CNS = test system: SF-539 CNS
RPMI-8226 leukemia = test system: RPMI-8226 leukemia
HS 578T breast = test system: HS 578T breast
SNB-19 CNS = test system: SNB-19 CNS
U251 CNS = test system: U251 CNS
MDA-MB-231 breast = test system: MDA-MB-231 breast
HT29 colon = test system: HT29 colon
RXF 393 renal = test system: RXF 393 renal
HCT-15 colon = test system: HCT-15 colon
COLO 205 colon = test system: COLO 205 colon
BT-549 breast = test system: BT-549 breast
SK-MEL-28 melanoma = test system: SK-MEL-28 melanoma
NCI-H226 lung = test system: NCI-H226 lung
MDA-MB-435 = test system: MDA-MB-435
KM12 colon = test system: KM12 colon
OVCAR-3 ovarian = test system: OVCAR-3 ovarian
A498 renal = test system: A498 renal
EKVX NSCLC = test system: EKVX NSCLC
A549 NSCLC = test system: A549 NSCLC
SK-OV-3 ovarian = test system: SK-OV-3 ovarian
OVCAR-5 ovarian = test system: OVCAR-5 ovarian
HCT-116 colon = test system: HCT-116 colon
CCRF-CEM leukemia = test system: CCRF-CEM leukemia
UO-31 renal = test system: UO-31 renal
NCI-H23 lung = test system: NCI-H23 lung
MALME-3M melanoma = test system: MALME-3M melanoma
OVCAR-8 ovarian = test system: OVCAR-8 ovarian
786-0 renal = test system: 786-0 renal
SR leukemia = test system: SR leukemia
NCI/ADR-RES ovarian = test system: NCI/ADR-RES ovarian
UACC-62 melanoma = test system: UACC-62 melanoma
PC-3 prostate = test system: PC-3 prostate

`CCO/C=N/C1=C(C#N)C(c2ccc(F)cc2)c2sc3c(CC)cccc3c2O1` (stereo unspecified) showed a GI50 (HOP-62 NSCLC) of 0.453 µM, a TGI (HOP-62 NSCLC) of 17.6 µM and a GI50 (SF-268 CNS) of 2.03 µM. It also gave a TGI (SF-268 CNS) of 17.4 µM, a GI50 (HL-60(TB) leukemia) of 0.337 µM and a TGI (HL-60(TB) leukemia) of 5.25 µM. The GI50 (CAKI-1 renal) was 0.359 µM, the TGI (CAKI-1 renal) was 17.1 µM and the GI50 (SNB-75 CNS) was 0.206 µM. For the same compound, the TGI (SNB-75 CNS) was 2.83 µM, the GI50 (MCF7 breast) was 0.361 µM and the TGI (MCF7 breast) was 12.5 µM. It also gave a GI50 (TK-10 renal) of 8.08 µM, a TGI (TK-10 renal) of 24 µM and a GI50 (OVCAR-4 ovarian) of 1.57 µM. The TGI (OVCAR-4 ovarian) was 17.8 µM, the GI50 (T-47D breast) was 0.44 µM and the TGI (T-47D breast) was 26.5 µM. The GI50 (NCI-H460 lung) was 0.379 µM, the TGI (NCI-H460 lung) was 5.26 µM and the GI50 (SF-295 CNS) was 0.27 µM. It also gave a TGI (SF-295 CNS) of 2.6 µM, a GI50 (SK-MEL-5 melanoma) of 0.482 µM and a TGI (SK-MEL-5 melanoma) of 11.4 µM. The GI50 (ACHN renal) was 0.711 µM, the TGI (ACHN renal) was 14.1 µM and the GI50 (NCI-H522 lung) was 0.209 µM. For the same compound, the TGI (NCI-H522 lung) was 5.61 µM, the GI50 (MOLT-4 leukemia) was 0.629 µM and the TGI (MOLT-4 leukemia) was 13.4 µM. The GI50 (IGROV1 ovarian) was 0.401 µM, the TGI (IGROV1 ovarian) was 14.1 µM and the GI50 (SK-MEL-2 melanoma) was 0.597 µM. For the same compound, the TGI (SK-MEL-2 melanoma) was 21.5 µM, the GI50 (HCC-2998 colon) was 0.641 µM and the TGI (HCC-2998 colon) was 6.65 µM. The GI50 (SN12C renal) was 0.609 µM, the TGI (SN12C renal) was 12.8 µM and the GI50 (LOX IMVI melanoma) was 0.732 µM. The TGI (LOX IMVI melanoma) was 11.1 µM, the GI50 (HOP-92 NSCLC) was 0.193 µM and the TGI (HOP-92 NSCLC) was 6.12 µM. It also gave a GI50 (SW-620 colon) of 0.478 µM, a TGI (SW-620 colon) of 13.4 µM and a GI50 (DU-145 prostate) of 0.401 µM. It also gave a TGI (DU-145 prostate) of 13 µM, a GI50 (UACC-257 melanoma) of 12.7 µM and a TGI (UACC-257 melanoma) of 31.3 µM. For the same compound, the GI50 (M14 melanoma) was 0.292 µM, the TGI (M14 melanoma) was 12.8 µM and the GI50 (K-562 leukemia) was 0.292 µM. The TGI (K-562 leukemia) was 13.6 µM, the GI50 (SF-539 CNS) was 0.28 µM and the TGI (SF-539 CNS) was 1.23 µM. It also gave a GI50 (RPMI-8226 leukemia) of 0.331 µM, a TGI (RPMI-8226 leukemia) of 5.52 µM and a GI50 (HS 578T breast) of 0.385 µM. For the same compound, the TGI (HS 578T breast) was 13 µM, the GI50 (SNB-19 CNS) was 0.466 µM and the TGI (SNB-19 CNS) was 15.8 µM. It also gave a GI50 (U251 CNS) of 0.468 µM, a TGI (U251 CNS) of 11.8 µM and a GI50 (MDA-MB-231 breast) of 0.664 µM. It also gave a TGI (MDA-MB-231 breast) of 14.3 µM, a GI50 (HT29 colon) of 0.351 µM and a TGI (HT29 colon) of 11.2 µM. The GI50 (RXF 393 renal) was 0.177 µM, the TGI (RXF 393 renal) was 0.531 µM and the GI50 (HCT-15 colon) was 0.389 µM. For the same compound, the TGI (HCT-15 colon) was 10.9 µM, the GI50 (COLO 205 colon) was 0.4 µM and the TGI (COLO 205 colon) was 2.84 µM. It also gave a GI50 (BT-549 breast) of 1.69 µM, a TGI (BT-549 breast) of 8.53 µM and a GI50 (SK-MEL-28 melanoma) of 1.28 µM. For the same compound, the TGI (SK-MEL-28 melanoma) was 19.7 µM, the GI50 (NCI-H226 lung) was 1.03 µM and the TGI (NCI-H226 lung) was 11.6 µM. It also gave a GI50 (MDA-MB-435) of 0.16 µM, a TGI (MDA-MB-435) of 0.446 µM and a GI50 (KM12 colon) of 0.384 µM. It also gave a TGI (KM12 colon) of 13.5 µM, a GI50 (OVCAR-3 ovarian) of 0.454 µM and a TGI (OVCAR-3 ovarian) of 13 µM. The GI50 (A498 renal) was 0.199 µM, the TGI (A498 renal) was 0.897 µM and the GI50 (EKVX NSCLC) was 0.488 µM. It also gave a TGI (EKVX NSCLC) of 16.7 µM, a GI50 (A549 NSCLC) of 0.518 µM and a TGI (A549 NSCLC) of 14.2 µM. It also gave a GI50 (SK-OV-3 ovarian) of 0.812 µM, a TGI (SK-OV-3 ovarian) of 21.6 µM and a GI50 (OVCAR-5 ovarian) of 0.67 µM. For the same compound, the TGI (OVCAR-5 ovarian) was 14.6 µM, the GI50 (HCT-116 colon) was 0.395 µM and the TGI (HCT-116 colon) was 11.2 µM. The GI50 (CCRF-CEM leukemia) was 0.282 µM, the TGI (CCRF-CEM leukemia) was 6.32 µM and the GI50 (UO-31 renal) was 0.637 µM. The TGI (UO-31 renal) was 17 µM, the GI50 (NCI-H23 lung) was 0.763 µM and the TGI (NCI-H23 lung) was 14.4 µM. For the same compound, the GI50 (MALME-3M melanoma) was 0.542 µM, the TGI (MALME-3M melanoma) was 23.8 µM and the GI50 (OVCAR-8 ovarian) was 0.508 µM. It also gave a TGI (OVCAR-8 ovarian) of 15.3 µM, a GI50 (786-0 renal) of 0.651 µM and a TGI (786-0 renal) of 13.2 µM. It also gave a GI50 (SR leukemia) of 0.451 µM, a TGI (SR leukemia) of 14.9 µM and a GI50 (NCI/ADR-RES ovarian) of 0.226 µM. The TGI (NCI/ADR-RES ovarian) was 3.66 µM, the GI50 (UACC-62 melanoma) was 0.371 µM and the TGI (UACC-62 melanoma) was 17.6 µM. It also gave a GI50 (PC-3 prostate) of 0.236 µM and a TGI (PC-3 prostate) of 11.4 µM.
